Measured values reported in patent US10364245B2 (CHIESI FARMACEUTICI S.p.A., priority 2017, dated 2019).

Key:
[1] = test system: Peripheral Blood Mononuclear Cells (PBMCs), TNFα release; experiment: LPS-stimulated PBMC TNFα release assay; assay type: cell-based; conditions: human PBMC, LPS (10 ng/ml), 18 h, compound 1 h before LPS; read-out: LPS-stimulated PBMC TNFα release inhibition
Experimental: LPS-Stimulated PBMC TNFα Release Assay
Peripheral Blood Mononuclear Cells (PBMCs) were isolated from healthy human volunteer blood using a standard density gradient centrifugation technique. Citrated blood was placed onto Histopaque™ and centrifuged. The PBMCs were removed from the density gradient interface and washed in phosphate buffered saline (PBS). The PBMCs were suspended in RPMI 1640 medium (without serum), dispensed into a 96-well plate and incubated at 37° C. for 3 h in a humidified incubator. After incubation, the medium was replaced (with medium containing 1% foetal bovine serum) and the plate incubated at 37° C., for 1 h, in the presence of test compound or the appropriate vehicle. LPS (10 ng/ml), or an appropriate vehicle control, was then added to the cells and the plate returned to the incubator for 18 h. Cell-free supernatants were removed and assayed for TNFα levels using MSD plates on the Sector Imager 6000 (MesoScale).
A dose response curve to each test compound was performed and the effect of compound in each experiment was expressed as a percentage inhibition of the control TNFα release. Dose response curves were plotted and compound potency (IC50) was determined. Compounds were tested in at least three separate experiments.

[2] = biological target: T1, p38 alpha (Homo sapiens, UniProt Q16539); experiment: P38 alpha enzyme inhibition assay (Alphascreen kinase activity assay); assay type: biochemical; conditions: 100 pM p38 alpha, 2 hours preincubation at 25° C., 250 μM ATP, ATF-2 fusion protein; read-out: p38α inhibition
T1 construct: purchased Invitrogen PV3304
T1 sequence (Q16539 whole entry, the tested form may be a part): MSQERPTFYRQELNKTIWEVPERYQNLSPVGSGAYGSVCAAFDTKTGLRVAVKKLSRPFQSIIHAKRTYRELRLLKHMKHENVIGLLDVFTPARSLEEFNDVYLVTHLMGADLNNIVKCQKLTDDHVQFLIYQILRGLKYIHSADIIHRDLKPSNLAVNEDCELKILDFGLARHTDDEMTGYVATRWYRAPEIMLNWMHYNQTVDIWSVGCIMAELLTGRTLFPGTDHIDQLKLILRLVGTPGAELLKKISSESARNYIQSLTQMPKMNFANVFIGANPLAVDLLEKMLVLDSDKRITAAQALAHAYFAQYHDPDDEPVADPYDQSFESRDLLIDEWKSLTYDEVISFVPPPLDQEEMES
Experimental: P38 Alpha Enzyme Inhibition Assay
The inhibitory activity of compounds was determined using an Alphascreen® (Perkin Elmer) based kinase activity assay. Kinase reactions consisted of 25 mM HEPES pH 7.5, 10 mM MgCl2, 100 μM Na3VO4, 2 mM DTT, 0.05 mg/ml Tween 20, 100 pM p38 alpha (Invitrogen, PV3304), 1% DMSO and 0.3 μg/ml ATF-2 fusion protein (New England Biolabs, 9224). Compounds were incubated under these conditions for 2 hours, at 25° C., prior to the initiation of the kinase activity by the addition of the 250 μM ATP. Reaction volumes were 20 μL. After 1 hr at 25° C. reactions were stopped by the adding 10 μL of 25 mM HEPES pH 7.5 containing 62.5 mM EDTA, 0.05% Triton X-100, 10% BSA and 0.83 ng/uL anti-phospho-ATF2 antibody (Abcam, ab28812). Detection was performed by measuring luminescence following the addition of Alphascreen Donor beads (Perkin Elmer 6765300) and Protein A Alphascreen Acceptor beads (Perkin Elmer 6760137), both at a final concentration of 20 ug/ml. IC50 values were determined from concentration-response curves.

| IC50 [2] [nM] | Structure (SMILES) | IC50 [1] [nM] |
| --- | --- | --- |
| < 1 | CC(C)(C)c1cc(NC(=O)N[C@H]2CC[C@@H](Oc3ccc4nnc(C(C)(C)C)n4c3)c3ccccc32)cc(C(=O)NCCN2CCC(O)CC2)n1 [Example 9, 6-(tert-Butyl)-4-(3-((1S,4R)-4-((3-(tert-butyl)-[1,2,4]triazolo[4,3-a]pyridin-6-yl)oxy]-1,2,3,4-tetrahydronaphthalen-1-yl}ureido)-N-(2-(4-hydroxypiperidin-1-yl)ethyl)picolinamide] | 1 to 5 |
| < 1 | CCN(CC)c1nnc2ccc(O[C@@H]3CC[C@H](NC(=O)Nc4cc(C(=O)NCCN(C)C)nc(C(C)(C)C)c4)c4ccccc43)cn12 [Example 10, 6-(tert-Butyl)-4-(3-((1S,4R)-4-((3-(diethylamino)-[1,2,4]triazolo[4,3-a]pyridin-6-yl)oxy)-1,2,3,4-tetrahydronaphthalen-1-yl)ureido)-N-(2-(dimethylamino)ethyl)picolinamide] | 1 to 5 |
| < 1 | CCN(C)CCNC(=O)c1nc(NC(=O)N[C@H]2CC[C@@H](Oc3ccc4nnc(N(CC)CC)n4c3)c3ccccc32)cc(C(C)(C)C)n1 [Example 11, 4-(tert-Butyl)-6-(3-((1S,4R)-4-((3-(diethylamino)-[1,2,4]triazolo[4,3-a]pyridin-6-yl)oxy)-1,2,3,4-tetrahydronaphthalen-1-yl)ureido)-N-(2-(ethyl(methyl)amino)ethyl)pyrimidine-2-carboxamide] | 1 to 5 |
| 1 to 10 | COC(C)(C)c1nnc2ccc(O[C@@H]3CC[C@H](NC(=O)Nc4cc(C(C)(C)C)nc(C(=O)NCCN5CCCOCC5)n4)c4ccccc43)cn12 [Example 12, N-(2-(1,4-Oxazepan-4-yl)ethyl)-4-(tert-butyl)-6-(3-((1S,4R)-4-((3-(2-methoxypropan-2-yl)-[1,2,4]triazolo[4,3-a]pyridin-6-yl)oxy)-1,2,3,4-tetrahydronaphthalen-1-yl)ureido)pyrimidine-2-carboxamide] | 1 to 5 |
| < 1 | COC(C)(C)c1nnc2ccc(O[C@@H]3CC[C@H](NC(=O)Nc4cc(C(C)(C)C)nc(CO)n4)c4ccccc43)cn12 [Example 13, 1-(6-(tert-Butyl)-2-(hydroxymethyl)pyrimidin-4-yl)-3-((1S,4R)-4-((3-(2-methoxypropan-2-yl)-[1,2,4]triazolo[4,3-a]pyridine-6-yl)oxy)-1,2,3,4-tetrahydronaphthalene-1-yl)urea] | 1 to 5 |
| < 1 | CN1CCC[C@@]1(C)c1nnc2ccc(O[C@@H]3CC[C@H](NC(=O)Nc4cc(C(C)(C)C)ncn4)c4ccccc43)cn12 [Example 14, 1-(6-(tert-Butyl)pyrimidin-4-yl)-3-((1S,4R)-4-((3-((S)-1,2-dimethylpyrrolidin-2-yl)-[1,2,4]triazolo[4,3-a]pyridin-6-yl)oxy)-1,2,3,4-tetrahydronaphthalen-1-yl)urea] | < 1 |
| < 1 | C[C@H]1CCCCN1c1nnc2ccc(O[C@@H]3CC[C@H](NC(=O)Nc4cc(C(C)(C)C)nc(CN(C)C)n4)c4ccccc43)cn12 [Example 15, 1-(6-(tert-Butyl)-2-((dimethylamino)methyl)pyrimidin-4-yl)-3-((1S,4R)-4-((3-((S)-2-methylpiperidin-1-yl)-[1,2,4]triazolo[4,3-a]pyridin-6-yl)oxy)-1,2,3,4-tetrahydronaphthalen-1-yl)urea] | > 5 |
| 1 to 10 | COC(C)(C)c1nnc2ccc(O[C@@H]3CC[C@H](NC(=O)Nc4cc(C(=O)NCC(C)(C)N(C)C)nc(C(C)(C)C)c4)c4ccccc43)cn12 [Example 194, 6-(tert-butyl)-N-(2-(dimethylamino)-2-methylpropyl)-4-(3-((1S,4R)-4-((3-(2-methoxypropan-2-yl)-[1,2,4]triazolo[4,3-a]pyridin-6-yl)oxy)-1,2,3,4-tetrahydronaphthalen-1-yl)ureido)picolinamide] |  |
| 1 to 10 | COC1CCN(CCNC(=O)c2cc(NC(=O)N[C@H]3CC[C@@H](Oc4ccc5nnc(C(C)(C)C)n5c4)c4ccccc43)cc(C(C)(C)C)n2)CC1 [Example 203, 6-(tert-butyl)-4-(3-((1S,4R)-4-((3-(tert-butyl)-[1,2,4]triazolo[4,3-a]pyridin-6-yl)oxy)-1,2,3,4-tetrahydronaphthalen-1-yl)ureido)-N-(2-(4-methoxypiperidin-1-yl)ethyl)picolinamide] |  |

The remaining lines, values behind:

| Structure (SMILES) | IC50 [2] [nM] | IC50 [1] [nM] |
| --- | --- | --- |
| CN(C)CCNC(=O)c1nc(NC(=O)N[C@H]2CC[C@@H](Oc3ccc4nnc(C(C)(C)C)n4c3)c3ccccc32)cc(C(C)(C)C)n1 [Example 1, 4-(tert-Butyl)-6-(3-((1S,4R)-4-((3-(tert-butyl)-[1,2,4]triazolo[4,3-a]pyridin-6-yl)oxy)-1,2,3,4-tetrahydronaphthalen-1-yl)ureido)-N-(2-(dimethylamino)ethyl)-pyrimidine-2-carboxamide] | < 1 | 1 to 5 |
| CCC(C)(C)c1nnc2ccc(O[C@@H]3CC[C@H](NC(=O)Nc4cc(C(C)(C)C)nc(C(=O)NCCN(C)CCO)n4)c4ccccc43)cn12 [Example 2, 4-(tert-Butyl)-N-(2-((2-hydroxyethyl)(methyl)amino)ethyl)-6-(3-((1S,4R)-4-((3-(tert-pentyl)-[1,2,4]triazolo[4,3-a]pyridin-6-yl)oxy)-1,2,3,4-tetrahydronaphthalen-1-yl)ureido)pyrimidine-2-carboxamide] | < 1 | 1 to 5 |
| CCC(C)(C)c1nnc2ccc(O[C@@H]3CC[C@H](NC(=O)Nc4cc(C(C)(C)C)nc(C(=O)NCCN(C)C)n4)c4ccccc43)cn12 [Example 3, 4-(tert-Butyl)-N-(2-(dimethylamino)ethyl)-6-(3-((1S,4R)-4-((3-(tert-pentyl)-[1,2,4]triazolo[4,3-a]pyridin-6-yl)oxy)-1,2,3,4-tetrahydronaphthalen-1-yl)ureido)pyrimidine-2-carboxamide] | < 1 | 1 to 5 |
| CCC(C)(C)c1nnc2ccc(O[C@@H]3CC[C@H](NC(=O)Nc4cc(C(C)(C)C)nc(C(=O)NCCN(C)CCOC)n4)c4ccccc43)cn12 [Example 4] | < 1 | 1 to 5 |
| CCC(CC)c1nnc2ccc(O[C@@H]3CC[C@H](NC(=O)Nc4cc(C(C)(C)C)nc(C(=O)NCCN(C)C)n4)c4ccccc43)cn12 [Example 5, 4-(tert-Butyl)-N-(2-(dimethylamino)ethyl)-6-(3-((1S,4R)-4-((3-(pentan-3-yl)-[1,2,4]triazolo[4,3-a]pyridin-6-yl)oxy)-1,2,3,4-tetrahydronaphthalen-1-yl)ureido)pyrimidine-2-carboxamide] | < 1 | 1 to 5 |
| CCC(CC)c1nnc2ccc(O[C@@H]3CC[C@H](NC(=O)Nc4cc(C(C)(C)C)nc(C(=O)NCCN5CC(OC)C5)n4)c4ccccc43)cn12 [Example 6, 4-(tert-Butyl)-N-(2-(3-methoxyazetidin-1-yl)ethyl)-6-(3-((1S,4R)-4-((3-(pentan-3-yl)-[1,2,4]triazolo[4,3-a]pyridin-6-yl)oxy)-1,2,3,4-tetrahydronaphthalen-1-yl)ureido)pyrimidine-2-carboxamide] | < 1 | 1 to 5 |
| COCC(C)(C)c1nnc2ccc(O[C@@H]3CC[C@H](NC(=O)Nc4cc(C(C)(C)C)nc(C(=O)NCC(C)(C)N(C)C)n4)c4ccccc43)cn12 [Example 7, 4-(tert-Butyl)-N-(2-(dimethylamino)-2-methylpropyl)-6-(3-((1S,4R)-4-((3-(1-methoxy-2-methylpropan-2-yl)-[1,2,4]triazolo[4,3-a]pyridin-6-yl)oxy)-1,2,3,4-tetrahydronaphthalen-1-yl)ureido)pyrimidine-2-carboxamide] | < 1 | 1 to 5 |
| CC[C@H](C)c1nnc2ccc(O[C@@H]3CC[C@H](NC(=O)Nc4cc(C(C)(C)C)nc(C(=O)NCC(C)(C)N(C)C)n4)c4ccccc43)cn12 [Example 8, 4-(tert-Butyl)-6-(3-((1S,4R)-4-((3-((S)-sec-butyl)-[1,2,4]triazolo[4,3-a]pyridin-6-yl)oxy)-1,2,3,4-tetrahydronaphthalen-1-yl)ureido)-N-(2-(dimethylamino)-2-methylpropyl)pyrimidine-2-carboxamide] | < 1 | 1 to 5 |
| CN1CCN(c2nc(NC(=O)N[C@H]3CC[C@@H](Oc4ccc5nnc([C@]6(C)CCCN6C)n5c4)c4ccccc43)cc(C(C)(C)C)n2)CC1 [Example 31, 1-(6-(tert-Butyl)-2-(4-methylpiperazin-1-yl)pyrimidin-4-yl)-3-((1S,4R)-4-((3-((S)-1,2-dimethylpyrrolidin-2-yl)-[1,2,4]triazolo[4,3-a]pyridin-6-yl)oxy)-1,2,3,4-tetrahydronaphthalen-1-yl)urea] |  | > 5 |
